Laboratory results published in patent US6420563B1, “Small molecule modulators of G protein-coupled receptor six” (Arena Pharmaceuticals, Inc., priority 1998, dated 2002).
Like-named read-outs stand apart in the source and are kept apart here.

How the values were obtained:
GPR6:Gsα-Fusion Protein = target: T1, GPR6:Gsα-Fusion Protein (Homo sapiens, UniProt P46095); experiment: [35S]GTPγS membrane binding assay (Example 4A); assay type: biochemical
T1 construct: expressed in transfected cells
Experimental: The assay plates were then centrifuged at 400 rpm for 15 minutes at room temperature and then subsequently aspirated and counted in a scintillation counter.
Membranes expressing the GPCR6:Gsα-Fusion Protein (see Example 2) and for use in the direct identification of candidate compounds as inverse agonists, agonists or partial agonists were prepared as follows:
All materials were kept on ice throughout the procedure. Firstly, the media was aspirated from a confluent monolayer of cells, followed by rinse with 10 ml cold PBS, followed by aspiration. Thereafter, 5 ml of membrane Scrape Buffer was added to scrape cells; this was followed by transfer of cellular extract into 50 ml centrifuge tubes (centrifuged at 20,000 rpm for 17 minutes at 4° C.). Thereafter, the supernatant was aspirated and the pellet was resuspended in 30 ml Membrane Wash Buffer followed by centrifuge at 20,000 rpm for 17 minutes at 4° C. The supernatant was then aspirated and the pellet resuspended in Binding Buffer. This was then homogenized using a Brinkman polytron™ homogenizer (15-20 second bursts until the all material was in suspension). This is referred to herein as “Membrane Protein”.
Candidate compounds (Tripos, Inc., St. Louis, Mo.) were received in 96-well plates (these can be frozen at −80° C.). Membrane Protein (or membranes with expression vector excluding the GPR6:Gsα-Fusion Protein, as control), were homogenized briefly until in suspension. Protein concentration was then determined using the Bradford Protein Assay set forth above. […] Thereafter, 100 ul GDP Buffer was added to each well of a Wallac Scintistrip™ (Wallac). A 5 ul pin-tool was then used to transfer 5 ul of a candidate compound into such well (i.e., 5 ul in total assay volume of 200 ul is a 1:40 ratio such that the final screening concentration of the candidate compound is 10 uM). Again, to avoid contamination, after each transfer step the pin tool was rinsed in three reservoirs comprising water (1×), ethanol (1×) and water (2×)—excess liquid should be shaken from the tool after each rinse and dried with paper towels and kimwipes™. Thereafter, 50 ul of Membrane Protein was added to each well (a control well comprising membranes without the GPCR Fusion Protein is also utilized), and pre-incubated for 5-10 minutes at room temperature (the plates were covered with foil in that the candidate compounds obtained from Tripos are light sensitive). Thereafter, 50 ul of [^35S]GTPγS (0.6 nM) in Binding Buffer was added to each well, followed by incubation on a shaker for 60 minutes at room temperature (again, in this example, plates were covered with foil). The assay was then stopped by spinning of the plates at 4000 RPM for 15 minutes at 22° C. The plates were then aspirated with an 8 channel manifold and sealed with plastic plate covers. The plates were then read on a Wallac 1450 using setting “Prot. #37” (as per manufacturer instructions).
The initial or “primary” screen designed to directly identify, e.g., human GPR6 receptor inverse agonists, consisted of the membrane-based GTPγS binding assay of Example 4A utilizing membranes prepared from 293 stable cells. Candidate compounds directly identified as inhibiting receptor-mediated increases in GTPγS as set forth below were considered active “leads”.
It is preferred that following such direct identification, IC50 (inverse agonist) or EC50 (agonist) values be determined; those having ordinary skill in the art are credited with utilizing IC50 and EC50 assay protocols of choice. FIG. 4 provides a representative IC50 curve for compound ARE112 using the assay protocol of Example 4A.

[1] = Food/water intake and body weight in 24-hour food deprived rats, oral gavage (PO); assay type: in vivo, rat; conditions: for body weight gain (FIG. 10C): vehicle about 19.5 grams
Experimental: Based upon the in vivo data developed, oral bioavailability of compound ARE112 was determined. The compound was administered by oral gavage at doses ranging from 6.75 to 54 mg/kg. The data presented in FIGS. 9A and 9B support the conclusion that oral administration of ARE112 also decreases food intake in both food-deprived and non-food deprived rats. […] In FIG. 9A, rats were deprived 24 hours prior to oral administration of the compound. In this assay, the vehicle-treated rats at 2.5 hours consumed […] of food while injected rats; particularly rats administered with 27 and 54 mg/kg of ARE 112, ate about 6 and 4 grams, respectively. […] (See, FIG. 9A).
Several other GPR6 inverse agonists were also assessed under 24-hour food deprived conditions, with PO administration. The analogs listed below were tested at 200 μmol/kg, which is equivalent to 54 mg/kg. In addition, ARE114 was also assessed at […]. Data are summarized below in Table C:
In a second assay, tested under the same conditions, several other analogs were assessed at 100 μmol/kg.
In FIG. 10, rats were deprived 24 hours prior to oral administration of the compound. In this assay, analogs ARE130, ARE135, ARE136, and ARE140, were administered at a dose of 100 μmol/kg. Three analogs, particularly, ARE130, ARE136 and ARE140 evidenced a slow intake of food (e.g., about 1 to 1.5 grams every two hours) over an eight hour period post-administration; while the vehicle rat consumed about 2 to 2.5 grams food every two hours. Similar to the vehicle rat, analog ARE135, an opened ring structure, evidenced that over an eight hour period post-administration the rats increasingly consumed about 2.5 grams every two hours. (See, FIG. 10A). Furthermore, the body weight of the vehicle rat and administered rats with analog ARE135 gained about 19.5 grams. On the other hand, the closed ring structures evidenced a decrease in body weight gain as follows: ARE112-6 grams, ARE130-9 grams, ARE136-11 grams and ARE140-14 grams. See, FIG. 10C.

GPR6 = target: T2, GPR6 (Homo sapiens, UniProt P46095); experiment: membrane-based cyclic AMP confirmation assay (Example 4C); assay type: biochemical; conditions: mean +/- standard deviation (number of assays in brackets); read-out: IC50 Values Cyclic AMP Assay Example 4C
T2 construct: expressed in transfected cells; 293 cells are used elsewhere
T2 sequence (P46095 whole entry): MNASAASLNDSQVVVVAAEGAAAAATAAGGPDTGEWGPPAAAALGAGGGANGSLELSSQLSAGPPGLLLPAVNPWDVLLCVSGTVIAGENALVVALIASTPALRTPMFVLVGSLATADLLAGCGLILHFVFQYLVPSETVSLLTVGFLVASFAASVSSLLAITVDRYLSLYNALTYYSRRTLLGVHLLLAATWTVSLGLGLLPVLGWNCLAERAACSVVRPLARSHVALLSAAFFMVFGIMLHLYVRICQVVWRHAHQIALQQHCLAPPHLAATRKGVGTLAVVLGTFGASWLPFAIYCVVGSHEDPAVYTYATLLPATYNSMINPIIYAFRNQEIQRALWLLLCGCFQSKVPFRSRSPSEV
Text: Using an independent assay approach to provide confirmation of a directly identified candidate compound as set forth above, it is preferred that a confirmation assay then be utilized. In this case, the preferred confirmation assay is membrane-based cyclic AMP (cAMP) assay.
A modified Flash Plate™ Adenylyl Cyclase kit (New England Nuclear; Cat. No. SMP004A) was utilized for confirmation of candidate compounds directly identified as inverse agonists and agonists to endogenous, constitutively activated orphan GPCRs in accordance with the following protocol.
Transfected stable cells were harvested approximately three days after transfection. Membranes were prepared by homogenization of suspended cells in buffer containing 20 mM HEPES, pH 7.4 and 10 mM MgCl2. Homogenization was performed on ice using a Brinkman Polytron™ for approximately 10 seconds. The resulting homogenate was centrifuged at 20,000 rpm for 20 minutes at 4° C. The resulting pellet was then resuspended in buffer containing 20 mM HEPES, pH 7.4 and 0.1 mM EDTA, homogenized for 10 seconds, followed by centrifugation at 20,000 rpm for 20 minutes at 4° C. The resulting pellet can be stored at −80° C. until utilized. On the day of direct identification screening, the membrane pellet is slowly thawed at room temperature, resuspended in buffer containing 20 mM HEPES, pH 7.4, 100 mM NaCl and 10 mM MgCL2, to yield a final protein concentration of 0.60 mg/ml (the resuspended membranes are placed on ice until use).
Candidate compounds identified as per above (if frozen, thawed at room temperature) were added to plate wells (3 μl/well; 12 μM final assay concentration), together with 50 μl Membrane Protein (30 μg/well) and 50 μl of Assay Buffer. This admixture was then incubated for 30 minutes at room temperature, with gentle shaking.
Following the incubation, 100 μl of Detection Buffer was added to each well, followed by incubation for 2-20 hours. Plates were subsequently aspirated and then counted in a Wallac MicroBeta™ plate reader using “Prot. #31” (as per manufacturer instructions).

[2] = mean +/- standard deviation (number of assays in brackets), read-out: IC50 Values GTP Assay Example 4A
[3] = 200 μmol/kg PO, Table C, vehicle 14.5
[4] = 200 μmol/kg PO, Table C, vehicle 20.3
[5] = 200 μmol/kg PO, Table C, vehicle 22.9
[6] = mean +/- SD (number of assays), read-out: IC50 Values (Table E, GTP Assay of Example 4A)
[7] = 100 μmol/kg PO, second assay, Table D, vehicle 14.0
[8] = 100 μmol/kg PO, second assay, Table D, vehicle 19.25

T1 sequence (P46095 with tags, fused parts or gaps): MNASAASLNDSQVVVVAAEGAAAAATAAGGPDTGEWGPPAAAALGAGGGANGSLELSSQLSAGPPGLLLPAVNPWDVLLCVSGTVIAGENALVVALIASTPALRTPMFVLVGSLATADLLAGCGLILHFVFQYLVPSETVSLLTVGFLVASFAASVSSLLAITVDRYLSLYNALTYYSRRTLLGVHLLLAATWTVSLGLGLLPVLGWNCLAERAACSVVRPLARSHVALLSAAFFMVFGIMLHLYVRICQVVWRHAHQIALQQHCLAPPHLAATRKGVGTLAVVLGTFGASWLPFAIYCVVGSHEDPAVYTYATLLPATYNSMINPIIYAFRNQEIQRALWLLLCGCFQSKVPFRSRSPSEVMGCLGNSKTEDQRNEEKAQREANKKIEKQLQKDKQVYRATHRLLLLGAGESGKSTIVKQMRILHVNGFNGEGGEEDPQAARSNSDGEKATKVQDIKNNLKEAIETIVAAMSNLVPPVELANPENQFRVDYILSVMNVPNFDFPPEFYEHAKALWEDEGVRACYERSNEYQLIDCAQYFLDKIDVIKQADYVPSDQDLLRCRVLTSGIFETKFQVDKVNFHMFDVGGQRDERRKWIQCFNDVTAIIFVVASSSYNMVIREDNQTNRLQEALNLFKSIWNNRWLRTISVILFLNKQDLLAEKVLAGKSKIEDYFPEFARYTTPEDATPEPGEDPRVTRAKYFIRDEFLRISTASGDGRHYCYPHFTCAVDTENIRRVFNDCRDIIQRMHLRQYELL

IC50 (GPR6:Gsα-Fusion Protein; [2]) | IC50 (GPR6) | SMILES | further results
260 nM | 4520 nM | O=C(NC(=S)N1CCNC1=S)c1cc2ccccc2s1 [ARE139, N-(2-thioxo-imidazolidine-1-carbothioyl)-benzothiophen-2-carboxamide] | 
68300 nM | 160000 nM | O=C(NC(=S)N1CCNC1=S)c1ccco1 [ARE143, N-(2-thioxo-imidazolidine-1-carbothioyl)-furan-2-carboxamide] | 
250 nM | 110 nM | O=C(N=C1SSC2=NCCN21)c1ccco1 [ARE144, N-(5,6dihydro-3H-imidazo[2,1-c]-1,2,4-dithiazol-3-ylidene)furan-2-carboxamide] | 
460 nM | 350 nM | Cc1noc(C)c1C(=O)/N=C1\SSC2=NCCN21 [ARE148] | 
2430 nM | 5830 nM | O=C(NC(=S)N1CCNC1=S)c1ccon1 [ARE149, N-(2-thioxo-imidazolidine-1-carbothioyl)-isoxazole-3-carboxamide] | 
330 nM | 100 nM | O=C(N=C1SSC2=NCCN21)c1ccon1 [ARE150, N-(5,6dihydro-3H-imidazo[2,1-c]-1,2,4-dithiazol-3-ylidene)-isoxazole-3-carboxamide] | 
6560 nM | 850 nM | O=C(NC(=S)N1CCNC1=S)c1cccnc1 [ARE155, N-(2-thioxo-imidazolidine-1-carbothioyl)-pyridine-3-carboxamide] | 
670 nM | 133 nM | O=C(N=C1SSC2=NCCN21)c1cccnc1 [ARE156, N-(5,6-dihydro-3H-imidazo[2,1-c]-1,2,4-dithiazol-3-ylidene)-pyridine-3-carboxamide] | 

The remaining lines, values behind:

SMILES | IC50 (GPR6:Gsα-Fusion Protein; [2]) | IC50 (GPR6) | further results
O=C(N=C1SSC2=NCCN21)c1ccccc1 [ARE114, N-(5,6-dihydro-3H-imidazo[2,1-c]-1,2,4-dithiazol-3-ylidene)-benzamide] | 440 nM | 170 nM | Cumulative Food Intake (g) (8 hr post administration) ([1]; 100 μmol/kg PO, Table C, vehicle 14.5): 10.8 g; Body Weight Gain (g) (6 hr post administration) ([1]; 100 μmol/kg PO, Table C, vehicle 20.3): 13.6 g; Cumulative Water Intake (g) (6 hr post administration) ([1]; 100 μmol/kg PO, Table C, vehicle 22.9): 15.3 g; Cumulative Food Intake (g) (8 hr post administration) [1, 3]: 8.68 g; Body Weight Gain (g) (6 hr post administration) [1, 4]: 6.18 g; Cumulative Water Intake (g) (6 hr post administration) [1, 5]: 10.6 g
O=C(N=C1SSC2=NCCN21)c1ccc(Cl)cc1 [ARE120, N-(5,6-dihydro-3H-imidazo[2,1-c]-1,2,4-dithiazol-3-ylidene)-4-chlorobenzamide] | 640 nM | 270 nM | Cumulative Food Intake (g) (8 hr post administration) [1, 3]: 9.88 g; Body Weight Gain (g) (6 hr post administration) [1, 4]: 11.4 g; Cumulative Water Intake (g) (6 hr post administration) [1, 5]: 18.5 g
O=C(N=C1SSC2=NCCN21)c1ccc(F)cc1 [ARE128, N-(5,6-dihydro-3H-imidazo[2,1-c]-1,2,4-dithiazol-3-ylidene)-4-fluorobenzamide] | 370 nM | 200 nM | Cumulative Food Intake (g) (8 hr post administration) [1, 3]: 7.93 g; Body Weight Gain (g) (6 hr post administration) [1, 4]: 4.03 g; Cumulative Water Intake (g) (6 hr post administration) [1, 5]: 8.5 g
O=C(N=C1SSC2=NCCN21)c1cccc(F)c1 [ARE130, N-(5,6-dihydro-3H-imidazo[2,1-c]-1,2,4-dithiazol-3-ylidene)-3-fluorobenzamide] | 220 nM | 240 nM | IC50 (GPR6:Gsα-Fusion Protein; [6]): 220 nM; Cumulative Food Intake (g) (8 hr post administration) [1, 7]: 9.1 g; Body Weight Gain (g) (6 hr post administration) [1, 8]: 9.5 g; Cumulative Water Intake (g) (6 hr post administration) [1, 8]: 9.5 g; water drunk less than the vehicle animal (FIG. 10B) ([1]; 100 μmol/kg oral): about 10 grams; body weight gain (FIG. 10C) ([1]; 100 μmol/kg oral): 9 grams
O=C(N=C1SSC2=NCCN21)c1ccc(F)cc1F [ARE134, N-(5,6-dihydro-3H-imidazo[2,1-c]-1,2,4-dithiazol-3-ylidene)-2,4-difluorobenzamide] | 410 nM | 190 nM | 
O=C(NC(=S)N1CCNC1=S)c1ccc2ccccc2c1 [ARE135, N-(2-thioxo-imidazolidine-1-carbothioyl)-naphthyl-2-carboxamide] | 100000 nM | 710 nM | IC50 (GPR6:Gsα-Fusion Protein; [6]): 100000 nM; Cumulative Food Intake (g) (8 hr post administration) [1, 7]: 13.5 g; Body Weight Gain (g) (6 hr post administration) [1, 8]: 19.5 g; Cumulative Water Intake (g) (6 hr post administration) [1, 8]: 19.5 g; food intake every two hours ([1]; 100 μmol/kg oral, over eight hour period post-administration (FIG. 10A), vehicle about 2 to 2.5 grams): about 2.5 grams; water drunk (FIG. 10B) ([1]; 100 μmol/kg oral, comparable to vehicle): about 19 grams; body weight gain (FIG. 10C) ([1]; 100 μmol/kg oral): about 19.5 grams
O=C(/N=C1\SSC2=NCCN21)c1cccc2ccccc12 [ARE138, N-(5,6-dihydro-3H-imidazo[2,1-c]-1,2,4-dithiazol-3-ylidene)-naphthyl-1-carboxamide] | 450 nM | 130 nM | 
